Measurements published in patent US20240166660A1, “KRAS G12C INHIBITORS” (BeiGene Switzerland GmbH, priority 2021, published 2024).

Molecular target: KRAS (aa 1-169) G12C, C51S, C80L, C118S (Homo sapiens (Human), UniProt P01116, C118S/C51S/C80L/G12C)
Assay: Biochemical functional assay: SOS1-mediated nucleotide exchange of GDP-loaded KRAS G12C, binding to GST-cRaf RBD, FRET readout
Details: 3 hrs pre-incubation with compound at 24° C., SOS1, GTPyS
How it was run: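 GDP-loaded His-tagged KRAS construct preincubated with compound 3 h at 24° C in 25 mM HEPES pH7.5, 10 mM MgCl2, 0.01% Triton X-100; SOS1 (aa 564-1049), GTPγS and GST-cRaf RBD added for 3 h, then anti-His Tb cryptate/anti-GST XL665 for 3 h. HTRF 665/620 ratio; IC50 by four-parameter logistic fit.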

[1] = inhibition of nucleotide exchange

Chain of KRAS (aa 1-169) G12C, C51S, C80L, C118S (P01116 other isoform, or with tags, fused parts or gaps G12C/C51S/C80L/C118S): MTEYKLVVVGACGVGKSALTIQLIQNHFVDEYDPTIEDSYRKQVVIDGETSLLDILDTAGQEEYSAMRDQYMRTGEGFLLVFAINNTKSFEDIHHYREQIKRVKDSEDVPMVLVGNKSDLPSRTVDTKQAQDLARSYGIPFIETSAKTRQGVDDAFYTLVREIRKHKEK

Compound | IC50 [1] [µM] | IC50 (bound in uM) [µM]
C=C(F)C(=O)N1CCN(c2nc(N3CC(N(C)C)C3)nc3cc(-c4cccc5cccc(Cl)c45)c4c(c23)OCCC4)C[C@@H]1CC#N (single isomer, unassigned) [Compound B101] | 0.00653 | –
C=C(F)C(=O)N1CCN(c2nc(OCC3C[C@@H](OC)CN3C)nc3cc(-c4cccc5cccc(Cl)c45)c4c(c23)OCCC4)C[C@@H]1CC#N (single isomer, unassigned) [Compound B94] | 0.00463 | –
C=C(F)C(=O)N1CCN(c2nc(OC[C@@H]3CCCN3C)nc3cc(-c4c(O)cccc4F)c4ccoc4c23)C[C@@H]1CC#N [Compound B39, 2-((2S)-4-(4-(2-fluoro-6-hydroxyphenyl)-7-(((S)-1-methylpyrrolidin-2-yl)methoxy)furo[2,3-f]quinazolin-9-yl)-1-(2-fluoroacryloyl)piperazin-2-yl)acetonitrile] | 1.04 | –
C=C(F)C(=O)N1CCN(c2nc(OC[C@@H]3C[C@@H](F)CN3C)nc3cc(-c4cccc5cccc(Cl)c45)c4c(c23)OCCC4)C[C@@H]1CC#N [Compound B53, 2-((S)-4-(5-(8-chloronaphthalen-1-yl)-8-(((2S,4R)-4-fluoro-1-methylpyrrolidin-2-yl)methoxy)-3,4-dihydro-2H-pyrano[2,3-f]quinazolin-10-yl)-1-(2-fluoroacryloyl)piperazin-2-yl)acetonitrile] | 0.028 | –
C=CC(=O)N1CCN(c2nc(OC[C@@H]3C[C@@H](F)CN3C)nc3cc(N4CCCc5ccccc54)c4c(c23)OCCC4)CC1 [Compound B27, 1-(4-(5-(3,4-dihydroquinolin-1(2H)-yl)-8-(((2S,4R)-4-fluoro-1-methylpyrrolidin-2-yl)methoxy)-3,4-dihydro-2H-pyrano[2,3-f]quinazolin-10-yl)piperazin-1-yl)prop-2-en-1-one] | 0.321 | –
C=C(F)C(=O)N1CCN(c2ncnc3cc(-c4c(C)cccc4F)c4c(c23)OCCC4)C[C@@H]1CC#N [Compound A30, 2-((2S)-4-(5-(2-fluoro-6-methylphenyl)-3,4-dihydro-2H-pyrano[2,3-f]quinazolin-10-yl)-1-(2-fluoroacryloyl)piperazin-2-yl)acetonitrile] | 1.96 | –
C=C(F)C(=O)N1CCN(c2nc(OC[C@@H]3COCCN3C)nc3cc(-c4cccc5cccc(Cl)c45)c4c(c23)OCCC4)C[C@@H]1CC#N [Compound B72, 2-((S)-4-(5-(8-chloronaphthalen-1-yl)-8-(((S)-4-methylmorpholin-3-yl)methoxy)-3,4-dihydro-2H-pyrano[2,3-f]quinazolin-10-yl)-1-(2-fluoroacryloyl)piperazin-2-yl)acetonitrile] | 0.194 | –
C=CC(=O)N1CCN(c2ncnc3cc(-c4cccc5ccccc45)c4c(c23)OCCC4)C[C@@H]1CC#N [Compound A7, (S)-2-(1-acryloyl-4-(5-(naphthalen-1-yl)-3,4-dihydro-2H-pyrano[2,3-f]quinazolin-10-yl)piperazin-2-yl)acetonitrile] | 0.0431 | –
C=C(F)C(=O)N1CCN(c2nc(N3CC(CC#N)(N(C)C)C3)nc3cc(-c4cccc5cccc(Cl)c45)c4c(c23)OCCC4)C[C@@H]1CC#N (single isomer, unassigned) [Compound B92] | 0.381 | –
C=C(F)C(=O)N1CCN(c2nc(OC[C@@H]3CCCN3C)nc3cc(-c4ccccc4F)c4ccoc4c23)CC1 [Compound B44, (S)-2-fluoro-1-(4-(4-(2-fluorophenyl)-7-((1-methylpyrrolidin-2-yl)methoxy)furo[2,3-f]quinazolin-9-yl)piperazin-1-yl)prop-2-en-1-one] | 6.35 | –
C=C(F)C(=O)N1CCN(c2nc(O[C@@H]3CCN(C)C3)nc3cc(-c4cccc5cccc(Cl)c45)c4c(c23)OCCC4)C[C@@H]1CC#N [Compound B71, 2-((S)-4-(5-(8-chloronaphthalen-1-yl)-8-(((R)-1-methylpyrrolidin-3-yl)oxy)-3,4-dihydro-2H-pyrano[2,3-f]quinazolin-10-yl)-1-(2-fluoroacryloyl)piperazin-2-yl)acetonitrile] | 0.304 | –
C=C(F)C(=O)N1CCN(c2nc(OC[C@@H]3C[C@@H](F)CN3C)nc3cc(-c4cccc5cccc(Cl)c45)c4ccoc4c23)C[C@@H]1CC#N [Compound B65, 2-((S)-4-(4-(8-chloronaphthalen-1-yl)-7-(((2S,4R)-4-fluoro-1-methylpyrrolidin-2-yl)methoxy)furo[2,3-f]quinazolin-9-yl)-1-(2-fluoroacryloyl)piperazin-2-yl)acetonitrile] | 0.03 | –
C=C(F)C(=O)N1CCN(c2nc(O[C@@H]3CCCC[C@H]3N(C)C)nc3cc(-c4cccc5cccc(Cl)c45)c4c(c23)OCCC4)C[C@@H]1CC#N [Compound B61, 2-((S)-4-(5-(8-chloronaphthalen-1-yl)-8-(((1R,2R)-2-(dimethylamino)cyclohexyl)oxy)-3,4-dihydro-2H-pyrano[2,3-f]quinazolin-10-yl)-1-(2-fluoroacryloyl)piperazin-2-yl)acetonitrile] | 0.186 | –
C=CC(=O)N1CCN(c2ncnc3cc(-c4cccc5cccc(Cl)c45)c4c(c23)OCCC4)C[C@@H]1CC#N [Compound A32, (S)-2-(1-acryloyl-4-(5-(8-chloronaphthalen-1-yl)-3,4-dihydro-2H-pyrano[2,3-f]quinazolin-10-yl)piperazin-2-yl)acetonitrile] | 0.012 | –
C=C(F)C(=O)N1CCN(c2nc(OC[C@@H]3CCCN3C)nc3cc(-c4ccc(Cl)c5ccccc45)c4c(c23)OCCC4)C[C@@H]1CC#N [Compound B98, 2-((S)-4-(5-(4-chloronaphthalen-1-yl)-8-(((S)-1-methylpyrrolidin-2-yl)methoxy)-3,4-dihydro-2H-pyrano[2,3-f]quinazolin-10-yl)-1-(2-fluoroacryloyl)piperazin-2-yl)acetonitrile] | 0.462 | –
C=CC(=O)N1CCN(c2nc(N3CC(N(C)C)C3)nc3cc(-c4cccc5ccccc45)c4c(c23)OCCC4)CC1 [Compound B10, 1-(4-(8-(3-(dimethylamino)azetidin-1-yl)-5-(naphthalen-1-yl)-3,4-dihydro-2H-pyrano[2,3-f]quinazolin-10-yl)piperazin-1-yl)prop-2-en-1-one] | 0.235 | –
C=C(F)C(=O)N1CCN(c2nc(OC[C@H]3CCCN3C)nc3cc(-c4cccc5cccc(Cl)c45)c4c(c23)OCCC4)C[C@@H]1CC#N (single isomer, unassigned) [Compound B105] | 0.29 | –
C=CC(=O)N1CCN(c2ncnc3cc(-c4c(C)ccc5[nH]ncc45)c4c(c23)OCCC4)CC1 [Compound A13, 1-(4-(5-(5-methyl-1H-indazol-4-yl)-3,4-dihydro-2H-pyrano[2,3-f]quinazolin-10-yl)piperazin-1-yl)prop-2-en-1-one] | 3.31 | –
C=CC(=O)N1CCN(c2nc(OC[C@@H]3CCCN3C)nc3cc(-c4c(O)cccc4F)c4ccoc4c23)CC1 [Compound B46, 1-(4-(4-(2-fluoro-6-hydroxyphenyl)-7-(((S)-1-methylpyrrolidin-2-yl)methoxy)furo[2,3-f]quinazolin-9-yl)piperazin-1-yl)prop-2-en-1-one] | 0.621 | –
C=C(F)C(=O)N1CCN(c2nc(N3CC(N(C)C)C3)nc3cc(-c4cccc(F)c4F)c4c(c23)OCCC4)C[C@@H]1CC#N [Compound B9, (S)-2-(4-(5-(2,3-difluorophenyl)-8-(3-(dimethylamino)azetidin-1-yl)-3,4-dihydro-2H-pyrano[2,3-f]quinazolin-10-yl)-1-(2-fluoroacryloyl)piperazin-2-yl)acetonitrile] | 0.456 | –
C=CC(=O)N1CCN(c2nc(N3CCN(C)CC3)nc3cc(-c4cccc5cccc(Cl)c45)c4c(c23)OCCC4)CC1 [Compound B24, 1-(4-(5-(8-chloronaphthalen-1-yl)-8-(4-methylpiperazin-1-yl)-3,4-dihydro-2H-pyrano[2,3-f]quinazolin-10-yl)piperazin-1-yl)prop-2-en-1-one] | – | > 10
C=CC(=O)N1CCN(c2nc(OC[C@@H]3CCCN3C)nc3cc(-c4c(Cl)cccc4Cl)c4ccoc4c23)CC1 [Compound B59, (S)-1-(4-(4-(2,6-dichlorophenyl)-7-((1-methylpyrrolidin-2-yl)methoxy)furo[2,3-f]quinazolin-9-yl)piperazin-1-yl)prop-2-en-1-one] | 0.745 | –
C=C(F)C(=O)N1CCN(c2nc(OC[C@@H]3C[C@H](F)CN3C)nc3cc(-c4cccc5cccc(Cl)c45)c4c(c23)OCCC4)C[C@@H]1CC#N [Compound B54, 2-((S)-4-(5-(8-chloronaphthalen-1-yl)-8-(((2S,4S)-4-fluoro-1-methylpyrrolidin-2-yl)methoxy)-3,4-dihydro-2H-pyrano[2,3-f]quinazolin-10-yl)-1-(2-fluoroacryloyl)piperazin-2-yl)acetonitrile] | 0.04 | –
C=CC(=O)N1CCN(c2nc(N3CC(N(C)C)C3)nc3cc(-c4ccccc4C)c4c(c23)OCCC4)CC1 [Compound B18, 1-(4-(8-(3-(dimethylamino)azetidin-1-yl)-5-(o-tolyl)-3,4-dihydro-2H-pyrano[2,3-f]quinazolin-10-yl)piperazin-1-yl)prop-2-en-1-one] | – | > 10
C=C(F)C(=O)N1CCN(c2nc(N3CC(CC#N)(N(C)C)C3)nc3cc(-c4cccc5cccc(Cl)c45)c4c(c23)OCCC4)C[C@@H]1CC#N (single isomer, unassigned) [Compound B91] | 0.015 | –
C=CC(=O)N1CCN(c2ncnc3cc(-c4c(C)c(C)cc5[nH]ncc45)c4c(c23)OCCC4)C[C@@H]1CC#N [Compound A25, 2-((2S)-1-acryloyl-4-(5-(5,6-dimethyl-1H-indazol-4-yl)-3,4-dihydro-2H-pyrano[2,3-f]quinazolin-10-yl)piperazin-2-yl)acetonitrile] | 0.0155 | –
C=CC(=O)N1CCN(c2ncnc3cc(-c4cc(C(F)(F)F)cc5[nH]ncc45)c4c(c23)OCCC4)C[C@@H]1CC#N [Compound A18, (S)-2-(1-acryloyl-4-(5-(6-(trifluoromethyl)-1H-indazol-4-yl)-3,4-dihydro-2H-pyrano[2,3-f]quinazolin-10-yl)piperazin-2-yl)acetonitrile] | 0.0378 | –
